Legend:
[1] = system: U87-MG cells on PCS-201 fibroblasts; assay: 5-ALA uptake (PpIX fluorescence), glioblastoma-fibroblast co-culture; assay type: cell-based, human
Procedure: During glioblastoma resection in patients, 5-ALA is used to aid neurosurgeons in delineating between the tumors and surrounding normal brain tissue. Likewise, to distinguish differences in 5-ALA uptake between glioblastoma and normal cells, a co-culture was developed where U87-MG cells were seeded in the center of a bed of PCS-201 fibroblasts and were subjected to TTFields or to no TTFields. Fluorescent and brightfield photomicrographs confirmed the presence of discrete glioblastoma vs. fibroblast cell regions in the co-culture set-up.
In particular, without TTFields exposure, the GBM cells formed many pockets of adherent neurospheres as was previously reported. […] To generate the data depicted in FIG. 18B, fluorescent panels of 5-ALA uptake (and subsequent PpIX fluorescence, Ex=558 nm, Em=583 nm) for no TTFields and TTFields were obtained. Duration of exposures are 2, 6, and 24 h. Quantification of time course of PpIX accumulation (and thus accumulation of fluorescent flux as expressed as photons/s) in the glioblastoma-fibroblast co-culture platform under TTFields exposed vs. unexposed conditions (p<0.001). Statistical analyses consisted of two-way ANOVA for no TTFields vs. TTFields conditions, and n=3 experiments per time point.

[2] = system: U87-MG/eGFP-fLuc cells; assay: Reversibility of TTFields-induced uptake; assay type: cell-based, human; conditions: TTFields 24 h vs none vs TTFields 24 h followed by no TTFields 24 h
Procedure: To assess the reversibility of the effect of TTFields on cancer cells, U87-MG/eGFP-fLuc cells were subjected to three conditions: (1) No TTFields exposure, standard cell culture conditions (37° C., […], 5% CO2), (2) TTFields exposure for 24 h and (3) TTFields exposure for 24 h followed by no TTFields exposure for 24 h. The readouts of BLI, PpIX fluorescence (5-ALA product) and Dextran-FITC (4 kDa) fluorescence were acquired. All experimental conditions were done in triplicate. […] Here, NS=not significant; BLI=bioluminescent imaging; eGFP=enhanced green fluorescence protein; fLuc=firefly luciferase; 5-ALA=5 aminolevulinic acid; FITC=fluorescein isothiocyanate; PpIX=protoporphyrin IX; and FL=fluorescence.
In vitro tumor treating field apparatus: The coverslips were transferred to a ceramic dish of the Inovitro™ system, which in turn was mounted onto Inovitro™ base plates (Novocure Ltd., Haifa, Israel). Tumor treating fields at 200 kHz (1-4 V/cm) were applied through an Inovitro™ power generator. Incubator ambient temperatures spanned 20-27° C. with a target temperature of 37° C. in the ceramic dishes upon application of the TTFields. Duration of TTFields exposure lasted anywhere from 0.5 to 72 h, after which coverslips were removed and processed for the appropriate bioassays (see below). […]

[3] = system: U87-MG cells; assay: 5-ALA uptake (PpIX fluorescence), single culture; assay type: cell-based, human
Procedure: Experiments were performed to determine the effects of TTFields on uptake of 5-ALA (as measured by PpIX accumulation and its resultant fluorescence) in glioblastoma cells. Because it is difficult to distinguish the margin between tumor and normal cells using the present 5-ALA bioassay, the measurement of PpIX fluorescence was used to address this issue. Investigations were run to determine whether permeation of 5-ALA through the cellular membrane and into the glioblastoma cells could be increased with TTFields exposure. U87-MG cells were exposed or unexposed to TTFields, each for durations of 6-24 h.
To generate the data depicted in FIG. 18A, protoporphyrin IX (PpIX) fluorescence panels were obtained for TTFields-unexposed vs. TTFields-exposed U87-MG cells after 6 and 24 h of exposure. […] All monovariant statistical comparisons between no TTFields vs. TTFields samples done by Student's t-test for n=3 experiments per time point.

[4] = system: MDA-MB-235 cells; assay: Drug sensitivity / synergy with TTFields; assay type: cell-based
[5] = system: MDA-MB-435 cells, doxorubicin resistant; assay: Intracellular accumulation of doxorubicin; assay type: cell-based, human; conditions: 10 μM, one hour; 150 kHz, 1.62 V/cm fields
[6] = system: MES-SA cells; assay: Intracellular accumulation of doxorubicin; assay type: cell-based; conditions: 10 μM, one hour; 150 kHz, 1.62 V/cm RMS, 24 hours
Procedure: FIG. 26C depicts the results of another experiment performed to determine how 150 kHz alternating electric fields affect the permeability of the cell membranes of MES-SA cells to doxorubicin (543.52 g/mol). In this experiment, MES-SA cells were treated with an alternating electric field at 150 kHz with a field strength of 1.62 V/cm RMS for 24 hours. After the first 23 hours, doxorubicin at a concentration of 10 μM was added and incubated for one hour during which time the alternating electric fields was continued (to complete the 24 hour period). The intracellular accumulation of doxorubicin was then measured.

[7] = system: MDA-MB-435 cells, wild type; assay: Intracellular accumulation of doxorubicin; assay type: cell-based, human; conditions: 10 μM, one hour; 150 kHz, 1.62 V/cm fields
[8] = system: GBM39/Luc cells; assay: Drug sensitivity / synergy with TTFields; assay type: cell-based, human
[9] = system: pcGBM2/GFP-Luc cells
[10] = system: human glioblastoma cells; assay: Growth inhibition by TTFields plus Withaferin A; assay type: cell-based
[11] = system: U87-MG/GFP-Luc cells; assay: Drug sensitivity / synergy with TTFields; assay type: cell-based, human
[12] = system: U87-MG/eGFP-fLuc cells; assay: Annexin-V-APC binding (apoptosis positive control); assay type: cell-based, human; conditions: 21 μM, TTFields-unexposed samples
Procedure: Initially, the impact of TTFields on the binding of Annexin-V-APC to the membrane of U87-MG/eGFP-fLuc cells was measured. Annexin-V-APC binding is a signature of early apoptosis which is characterized by ruffling of the membrane.

[13] = system: MCF-7 cells, mitoxantrone resistant; assay: Intracellular accumulation of mitoxantrone; assay type: cell-based, human; conditions: 2 μM, one hour; 150 kHz, 1.62 V/cm fields
Procedure: (§1) FIG. 22C depicts the results of a similar experiment using MCF-7 human breast adenocarcinoma cell line cells and mitoxantrone (444.481 g/mol). In this experiment, both wild type and mitoxantrone resistant variants of MCF-7 cells were treated with an alternating electric field at 150 kHz with a field strength of 1.62 V/cm for 23 hours. After this 23 hour period, mitoxantrone at a concentration of 2 μM was added and incubated for one hour, during which time the alternating electric fields was continued. The intracellular accumulation of mitoxantrone was then measured. The intracellular accumulation of mitoxantrone increased for both the wild type cells (compare bar 1 to bar 3) and the mitoxantrone resistant cells (compare bar 2 to bar 4).

[14] = system: MCF-7 cells, wild type; assay: Intracellular accumulation of mitoxantrone; assay type: cell-based, human; conditions: 2 μM, one hour; 150 kHz, 1.62 V/cm fields
Procedure: as §1

[15] = system: GBM39 cells; assay: Drug sensitivity with TTFields; assay type: cell-based, human; conditions: TTFields for 3 days vs no TTFields
[16] = system: U87-MG cells; assay: 7-AAD accumulation by flow cytometry; assay type: cell-based, human; conditions: 300 kHz, 1.62 V/cm RMS, 24 h; only sample incubated with 7-AAD while subjected to field
Procedure: FIG. 21D depicts the results of an experiment to test how quickly the permeability drops back down after cessation of the alternating electric fields. More specifically, 7-Aminoactinomycin D (7-AAD) is a fluorescent chemical compound with a strong affinity for DNA. […] In this experiment, the cells were treated with an alternating electric field at 300 kHz with a field strength of 1.62 V/cm RMS for 24 hours, at an ambient temperature of 18° C. 7-AAD was introduced into samples at five different times: 15 minutes prior to the cessation of the alternating electric field; immediately after cessation of the alternating electric field; and 15, 30, and 60 minutes after cessation of the alternating electric field. In each case, the cells were incubated with 7-AAD for 30 minutes after introduction of the 7-AAD, followed by flow cytometry analysis of the percentage of cells with increased accumulation of the fluorescent 7-AAD for each of the different timings.
In this experiment, the cells were treated with an alternating electric field at different frequencies with a field strength of 1.62 V/cm RMS for a total of 24 hours, at an ambient temperature of 18° C. and a dish temperature of 37° C. After the first 23.75 hours, 7-AAD was added to the culture and incubated for 15 minutes during which time the alternating electric fields was continued (to complete the 24 hour period). […]

[17] = system: MDA-MB-435 human melanoma cell line cells; assay: 7-AAD accumulation by flow cytometry; assay type: cell-based
Procedure: FIG. 22A depicts the results of an experiment performed to determine how alternating electric fields affect the permeability of the cell membranes of MDA-MB-435 human melanoma cell line cells. In this experiment, MDA-MB-435 cells were treated with an alternating electric field at 150 kHz with a field strength of 1.62 V/cm for 24 hours, at an ambient temperature of 18° C. and a dish temperature of 37° C. (The dish temperature in this and other examples is higher than the ambient temperature due to heating caused by the alternating electric fields.) After the first 23.75 hours, 7-AAD was added to the culture and incubated for 15 minutes during which time the alternating electric fields was continued (to complete the 24 hour period). After this 15 minute period, alternating electric field application was terminated and the cells were incubated at room temperature for an additional 15 minutes.
In a variation of this experiment, MDA-MB-435 human melanoma cell line cells were treated with an alternating electric field at 150 kHz with a field strength of 1.62V/cm for 24 hours, at an ambient temperature of 18° C. and a dish temperature of 37° C. After this 24 hour period, the alternating electric fields were turned off for 15 minutes, after which the 7-AAD was added. After waiting an additional 15 minutes, the percentage of cells with increased accumulation of the fluorescent 7-AAD was determined using flow cytometry.

[18] = TTFields for 3 days vs no TTFields

Structure (SMILES): NCC(=O)CCC(=O)O [5-ALA, 5-aminolevulinic acid]
- ratio of PpIX fluorescence intensity, U87-MG cells over PCS-201 fibroblast cells ([1]; 24 h TTFields vs no TTFields, p=0.043): significantly increased
- rate of PpIX fluorescence intensity increase ([1]; TTFields-exposed vs unexposed co-cultures, 2, 6, 24 h): significantly augmented
- reversibility of increased uptake [2]: reversibly increase uptake
- uptake of 5-ALA (PpIX fluorescence) ([3]; 6 h TTFields vs no TTFields, p=0.047): significantly increased uptake
- uptake of 5-ALA (PpIX fluorescence) ([3]; 24 h TTFields vs no TTFields, p=0.011): increase was maintained

Structure (SMILES): COc1cccc2c1C(=O)c1c(O)c3c(c(O)c1C2=O)C[C@@](O)(C(=O)CO)C[C@@H]3O[C@H]1C[C@H](N)[C@H](O)[C@H](C)O1 [doxorubicin]
- synergy of TTFields plus drug [4]: Evidence of synergy
- sensitivity of cells to drug [4, 18]: improves the sensitivity
- intracellular accumulation of doxorubicin [5]: increased
- increase of intracellular accumulation of doxorubicin [6]: more than 2 ×
- intracellular accumulation of doxorubicin [7]: increased

Structure (SMILES): CC1=C(CO)C(=O)O[C@@H]([C@@H](C)[C@H]2CC[C@H]3[C@@H]4C[C@H]5O[C@]56[C@@H](O)C=CC(=O)[C@]6(C)[C@H]4CC[C@]23C)C1 [Withaferin A]
- synergy of TTFields plus drug [8]: synergy was found
- synergy of TTFields plus drug [9]: synergy was found
- growth of human glioblastoma cells, TTFields in conjunction with compound [10]: synergistically inhibited the growth
- synergy of TTFields plus drug [11]: synergy was found
- Annexin-V-APC binding visualized via fluorescence microscopy [12]: could be visualized

Structure (SMILES): O=C1c2c(O)ccc(O)c2C(=O)c2c(NCCNCCO)ccc(NCCNCCO)c21 [mitoxantrone]
- intracellular accumulation of mitoxantrone [13]: increased
- intracellular accumulation of mitoxantrone [14]: increased

Structure (SMILES): O=NN(CCCl)C(=O)NC1CCCCC1 [Lomustine]
- sensitivity of cells to drug [9, 18]: improves the sensitivity
- sensitivity of cells to drug [11, 18]: improves the sensitivity
- sensitivity of cells to drug [15]: improves the sensitivity

Structure (SMILES): Cc1c2oc3c(C)c(N)cc(C(=O)N[C@@H]4C(=O)N[C@H](C(C)C)C(=O)N5CCC[C@H]5C(=O)N(C)CC(=O)N(C)[C@@H](C(C)C)C(=O)O[C@@H]4C)c3nc-2c(C(=O)N[C@@H]2C(=O)N[C@H](C(C)C)C(=O)N3CCC[C@H]3C(=O)N(C)CC(=O)N(C)[C@@H](C(C)C)C(=O)O[C@@H]2C)c(N)c1=O [7-AAD, 7-Aminoactinomycin D]
- accumulation of 7-AAD [16]: significant increase in accumulation
- percentage of cells with increased accumulation of 7-AAD ([17]; 150 kHz, 1.62V/cm, 24 h, 7-AAD added 15 minutes after fields turned off): ~20%
- percentage of cells with increased accumulation of 7-AAD ([17]; 150 kHz, 1.62 V/cm, 24 h, 7-AAD added for last 15 minutes of field): ~66%
- percentage of cells with increased accumulation of 7-AAD ([17]; control, alternating electric fields not applied): less than 5%

— patent US20230009366A1, “Using Alternating Electric Fields at Different Frequencies to Increase Permeability of the Blood Brain Barrier and also to Provide Other Benefits” (Novocure GmbH, priority 2021, published 2023)
